Key:
[1] = molecular target: T1, Human Calpain 1/NS1 (Homo sapiens, UniProt P07384); assay: Calpain inhibition, continuous fluorescence (FRET substrate) assay, calpain 1; type: biochemical; conditions: SensoLyte 520 FRET substrate, 25C
T1 sequence (P07384 1-714): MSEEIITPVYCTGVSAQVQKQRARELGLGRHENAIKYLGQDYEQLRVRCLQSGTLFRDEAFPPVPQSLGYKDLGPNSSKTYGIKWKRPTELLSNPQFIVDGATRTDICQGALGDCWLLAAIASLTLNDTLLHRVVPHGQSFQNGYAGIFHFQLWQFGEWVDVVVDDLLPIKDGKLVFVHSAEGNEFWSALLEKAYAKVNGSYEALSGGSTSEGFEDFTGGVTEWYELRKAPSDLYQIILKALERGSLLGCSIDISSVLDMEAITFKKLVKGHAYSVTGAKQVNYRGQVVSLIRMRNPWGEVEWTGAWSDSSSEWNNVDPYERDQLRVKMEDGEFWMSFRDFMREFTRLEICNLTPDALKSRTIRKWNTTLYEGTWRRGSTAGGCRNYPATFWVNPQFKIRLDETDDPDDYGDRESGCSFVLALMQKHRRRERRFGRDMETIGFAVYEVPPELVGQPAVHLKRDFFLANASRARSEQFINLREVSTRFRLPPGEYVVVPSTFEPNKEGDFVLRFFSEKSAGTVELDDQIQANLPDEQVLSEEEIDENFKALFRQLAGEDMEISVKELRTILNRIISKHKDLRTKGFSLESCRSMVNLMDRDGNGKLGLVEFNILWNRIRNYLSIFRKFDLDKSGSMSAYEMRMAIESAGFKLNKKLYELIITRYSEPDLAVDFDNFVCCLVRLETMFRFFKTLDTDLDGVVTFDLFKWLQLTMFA
T1 sequence (P04632 1-268 partner): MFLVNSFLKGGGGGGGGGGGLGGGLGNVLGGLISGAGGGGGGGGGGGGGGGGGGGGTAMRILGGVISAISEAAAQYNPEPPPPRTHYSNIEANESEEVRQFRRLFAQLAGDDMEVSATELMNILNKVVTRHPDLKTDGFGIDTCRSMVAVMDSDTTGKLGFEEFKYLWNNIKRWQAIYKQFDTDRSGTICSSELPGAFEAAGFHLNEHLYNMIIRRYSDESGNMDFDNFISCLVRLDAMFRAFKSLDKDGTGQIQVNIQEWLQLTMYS
How it was run: (§1)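 Continuous FRET read-out (ex 490/em 520 nm) of 5-FAM/QXL 520 substrate cleavage, started by adding substrate with CaCl2 for in-situ activation after enzyme–inhibitor preincubation at 25 °C. Buffer was Tris 50 mM pH 7.5, NaCl 100 mM, DTT 1 mM. IC50 fitted (4-parameter) from rates over 1-5 min.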

[2] = molecular target: T2, Human Calpain 2/NS1 (Homo sapiens, UniProt P17655); assay: Calpain inhibition, continuous fluorescence (FRET substrate) assay, calpain 2; type: biochemical; conditions: SensoLyte 520 FRET substrate, 25C
T2 sequence (P17655 1-700): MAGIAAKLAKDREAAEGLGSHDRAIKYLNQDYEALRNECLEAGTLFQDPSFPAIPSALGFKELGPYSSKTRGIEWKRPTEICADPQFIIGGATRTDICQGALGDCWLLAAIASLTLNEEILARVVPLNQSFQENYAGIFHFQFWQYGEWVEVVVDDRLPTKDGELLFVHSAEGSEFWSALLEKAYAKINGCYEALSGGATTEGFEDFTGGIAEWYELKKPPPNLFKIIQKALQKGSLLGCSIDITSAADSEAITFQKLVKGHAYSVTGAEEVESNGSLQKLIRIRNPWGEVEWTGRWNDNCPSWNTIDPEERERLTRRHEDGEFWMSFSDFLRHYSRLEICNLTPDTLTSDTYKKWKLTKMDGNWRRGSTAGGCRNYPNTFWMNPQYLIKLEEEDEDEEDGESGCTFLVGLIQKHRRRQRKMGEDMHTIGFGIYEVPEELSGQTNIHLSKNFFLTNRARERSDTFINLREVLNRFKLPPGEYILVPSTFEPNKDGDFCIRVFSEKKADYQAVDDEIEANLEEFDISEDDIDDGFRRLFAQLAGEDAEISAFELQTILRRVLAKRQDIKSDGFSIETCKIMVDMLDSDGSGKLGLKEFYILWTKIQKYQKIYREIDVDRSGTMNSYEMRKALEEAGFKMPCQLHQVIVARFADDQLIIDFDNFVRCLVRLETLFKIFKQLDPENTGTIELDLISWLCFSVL
T2 sequence (P04632 1-268 partner): T1 sequence (P04632 1-268 partner)
How it was run: as §1

[3] = molecular target: T3, Human Calpain 9/NS1 (Homo sapiens, UniProt O14815); assay: Calpain inhibition, continuous fluorescence (FRET substrate) assay, calpain 9; type: biochemical; conditions: SensoLyte 520 FRET substrate, 25C
T3 sequence (O14815 1-690): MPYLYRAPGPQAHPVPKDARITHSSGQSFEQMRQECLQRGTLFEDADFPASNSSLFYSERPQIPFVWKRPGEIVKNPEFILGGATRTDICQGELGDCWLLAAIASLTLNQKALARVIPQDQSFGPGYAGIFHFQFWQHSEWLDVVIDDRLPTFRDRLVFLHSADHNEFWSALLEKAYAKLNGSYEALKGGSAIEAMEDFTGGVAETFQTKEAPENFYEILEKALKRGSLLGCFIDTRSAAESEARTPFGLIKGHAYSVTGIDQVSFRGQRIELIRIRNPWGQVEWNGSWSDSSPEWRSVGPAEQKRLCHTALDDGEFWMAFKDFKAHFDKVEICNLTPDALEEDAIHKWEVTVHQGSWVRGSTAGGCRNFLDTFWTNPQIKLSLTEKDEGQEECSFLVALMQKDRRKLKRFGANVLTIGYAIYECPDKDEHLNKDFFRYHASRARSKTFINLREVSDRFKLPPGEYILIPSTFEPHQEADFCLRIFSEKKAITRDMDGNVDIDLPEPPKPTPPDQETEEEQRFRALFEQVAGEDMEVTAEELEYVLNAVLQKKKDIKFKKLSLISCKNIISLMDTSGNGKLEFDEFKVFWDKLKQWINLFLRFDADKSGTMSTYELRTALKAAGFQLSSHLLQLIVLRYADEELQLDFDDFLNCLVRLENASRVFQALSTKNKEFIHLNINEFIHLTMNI
T3 sequence (P04632 1-268 partner): T1 sequence (P04632 1-268 partner)
How it was run: as §1

[4] = test system: Calpain activity in SH-SY5Y cells; assay: SH-SY5Y spectrin breakdown product (SBDP-150) western blot assay; type: cell-based; conditions: Homo sapiens; SH-SY5Y cells, 25 uM A23187, SBDP-150 western blot; read-out: SH-SY5Y Spectrin IC50
[5] = test system: Calpain activity in SH-SY5Y cells; assay: SH-SY5Y Suc-LLVY-AMC fluorescence assay; type: cell-based; conditions: Homo sapiens; SH-SY5Y cells, 100 uM Suc-LLVY-AMC; read-out: SH-SY5Y + AMC IC50

SMILES | IC50 [1] | IC50 [2] | IC50 [3] | IC50 [4] | IC50 [5]
Cn1cc(C(=O)NC(Cc2ccccc2)C(=O)C(N)=O)c(-c2cccc3ccsc23)n1 (centres unmarked) [Compound 101, N-(4-AMINO-3,4-DIOXO-1-PHENYLBUTAN-2-YL)-3-(BENZO[b]THIOPHEN-7-YL)-1-METHYL-1H-PYRAZOLE-4-CARBOXAMIDE] | < 3 µM | < 3 µM | < 3 µM | < 10 µM | 10 to 25 µM
Cn1cc(C(=O)NC(Cc2ccccc2)C(=O)C(N)=O)c(-c2cccc3sccc23)n1 (centres unmarked) [Compound 102, N-(4-AMINO-3,4-DIOXO-1-PHENYLBUTAN-2-YL)-3-(BENZO[b]THIOPHEN-4-YL)-1-METHYL-1H-PYRAZOLE-4-CARBOXAMIDE] | < 3 µM | < 3 µM | < 3 µM | < 10 µM | > 25 µM
CC(C)n1c(=O)[nH]c2c(-c3nn(C)cc3C(=O)NC(Cc3ccccc3)C(=O)C(N)=O)cccc21 (centres unmarked) [Compound 103, N-(4-AMINO-3,4-DIOXO-1-PHENYLBUTAN-2-YL)-3-(1-ISOPROPYL-2-OXO-2,3-DIHYDRO-1H-BENZO[D]IMIDAZOL-4-YL)-1-METHYL-1H-PYRAZOLE-4-CARBOXAMIDE] | < 3 µM | < 3 µM | < 3 µM | < 10 µM | 10 to 25 µM
O=C(NC(Cc1ccccc1)C(=O)c1nc[nH]n1)c1nsnc1-c1ccccc1 (centres unmarked) [Compound 104, N-(1-OXO-3-PHENYL-1-(H-1,2,4-TRIAZOL-3-YL)PROPAN-2-YL)-4-PHENYL-1,2,5-THIADIAZOLE-3-CARBOXAMIDE] | > 10 µM | > 10 µM | > 10 µM | > 25 µM | > 25 µM

— patent publication US20210009564A1, “CALPAIN MODULATORS AND THERAPEUTIC USES THEREOF” (BLADE THERAPERTICS, INC., priority 2018, published 2021)
